# Source: patent US6737383B1, “Herbicidal oxadiazolidines” (priority 1999, dated 2004)
# Columns and labels:
# crabgrass = test: Test B pre/postemergence crabgrass; assay type: in vivo, Digitaria sanguinalis
# Outline: (§1)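 Herbicidal effect was estimated by eye on a ten-point control scale after plants spent twelve to sixteen days in a greenhouse following soil or foliar treatment. Foliar sprays targeted plants at one to four leaves; all doses were formulated in a non-phytotoxic solvent with surfactant.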
# duck salad = test: Test B flood test duck salad; assay type: in vivo, Heteranthera limosa
# Outline: (§2)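 Read-out is a visual response score from 0 (no effect) to 10 (complete control), assigned by comparison with untreated controls. Treatment was applied at the 2-leaf stage, and plants stayed in the greenhouse for twelve to sixteen days before scoring.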
# corn = test: Test B pre/postemergence corn; assay type: in vivo, Zea mays
# Outline: as §1
# wheat = test: Test B pre/postemergence wheat; assay type: in vivo, Triticum aestivum
# Outline: as §1
# morningglory = test: Test B pre/postemergence morningglory; assay type: in vivo, Ipomoea hederacea
# Outline: as §1
# giant foxtail = test: Test B pre/postemergence giant foxtail; assay type: in vivo, Setaria faberii
# Outline: as §1
# bedstraw = test: Test B pre/postemergence bedstraw; assay type: in vivo, Galium aparine; details: Postemergence, Rate 62 g/ha; scale 0 to 10, 0 is no effect, 10 is complete control
# Outline: as §1
# rice = test: Test B flood test rice; assay type: in vivo, Oryza sativa
# Outline: as §2
# cocklebur = test: Test B pre/postemergence cocklebur; assay type: in vivo, Xanthium strumarium
# Outline: as §1
# purple nutsedge = test: Test B pre/postemergence purple nutsedge; assay type: in vivo, Cyperus rotundus
# Outline: as §1
# blackgrass = test: Test B pre/postemergence blackgrass; assay type: in vivo, Alopecurus myosuroides
# Outline: as §1
# surinam grass = test: Test B pre/postemergence surinam grass; assay type: in vivo, Brachiaria decumbens
# Outline: as §1
# wild oat = test: Test B pre/postemergence wild oat; assay type: in vivo, Avena fatua
# Outline: as §1
# velvetleaf = test: Test B pre/postemergence velvetleaf; assay type: in vivo, Abutilon theophrasti
# Outline: as §1
# bamyardgrass = test: Test B flood test barnyardgrass; assay type: in vivo, Echinochloa crus-galli
# Outline: as §2
# smallflower flatsedge = test: Test B flood test smallflower flatsedge; assay type: in vivo, Cyperus difformis
# Outline: as §2
# [1] = Postemergence, Rate 62 g/ha, scale 0 to 10, 0 is no effect, 10 is complete control
# [2] = Postemergence, Rate 125 g/ha, scale of 0 to 10 where 0 is no effect and 10 is complete control
# [3] = Postemergence, Rate 250 g/ha, scale of 0 to 10, 0 is no effect, 10 is complete control
# [4] = Preemergence, Rate 62 g/ha, scale of 0 to 10 where 0 is no effect and 10 is complete control
# [5] = Preemergence, Rate 125 g/ha, scale of 0 to 10 where 0 is no effect and 10 is complete control
# [6] = Preemergence, Rate 250 g/ha, scale 0 to 10 (0 no effect, 10 complete control)
# [7] = Preemergence, Rate 500 g/ha, scale of 0 to 10 where 0 is no effect and 10 is complete control
# [8] = Rate 500 g/ha, Postemergence, scale 0 to 10, 0 is no effect, 10 is complete control
# [9] = Rate 62 g/ha, flood test species, Pre-emergence, visual evaluation after twelve to sixteen days
# [10] = Rate 125 g/ha, under heading Pre-emergence, flood test species, visual evaluation after twelve to sixteen days
# [11] = Rate 250 g/ha, Pre-emergence (flood test species), scale 0 to 10, 0 is no effect, 10 is complete control
# [12] = Rate 500 g/ha, Pre-emergence section of Table B, 0 to 10 scale (0 no effect, 10 complete control)
smiles,measurement,setting,value
CC[C@@H](C)n1c(=O)on(C(=O)N(c2ccc(F)cc2F)C(C)C)c1=O [Compound 667],"Plant response rating, Crabgrass",crabgrass; [1],6
same,Crabgrass plant response rating,crabgrass; [2],8
same,Crabgrass plant response rating,crabgrass; [3],9
same,Crabgrass plant response rating,crabgrass; [4],8
same,Crabgrass plant response rating,crabgrass; [5],8
same,"Plant response rating, Crabgrass",crabgrass; [6],10
same,"Plant response rating, Crabgrass",crabgrass; [7],10
same,Crabgrass plant response rating,crabgrass; [8],10
same,"Plant response rating, Ducksalad (0 to 10 scale, 0 is no effect, 10 is complete control)",duck salad; [9],0
same,"Ducksalad plant response rating (0 to 10 scale, 0 is no effect, 10 is complete control)",duck salad; [10],0
same,Ducksalad plant response rating,duck salad; [11],0
same,Ducksalad plant response rating,duck salad; [12],0
same,"Plant response rating, Corn",corn; [1],4
same,Corn plant response rating,corn; [2],4
same,Corn plant response rating,corn; [3],4
same,Corn plant response rating,corn; [4],0
same,Corn plant response rating,corn; [5],4
same,"Plant response rating, Corn",corn; [6],7
same,"Plant response rating, Corn",corn; [7],10
same,Corn plant response rating,corn; [8],5
same,"Plant response rating, Wheat",wheat; [1],0
same,Wheat plant response rating,wheat; [2],0
same,Wheat plant response rating,wheat; [4],2
same,Wheat plant response rating,wheat; [5],2
same,"Plant response rating, Wheat",wheat; [6],5
same,"Plant response rating, Wheat",wheat; [7],6
same,Wheat plant response rating,wheat; [8],5
same,"Plant response rating, Morningglory",morningglory; [1],2
same,Morningglory plant response rating,morningglory; [2],2
same,Morningglory plant response rating,morningglory; [3],4
same,Morningglory plant response rating,morningglory; [4],0
same,Morningglory plant response rating,morningglory; [5],1
same,"Plant response rating, Morningglory",morningglory; [6],3
same,"Plant response rating, Morningglory",morningglory; [7],6
same,Morningglory plant response rating,morningglory; [8],6
same,"Plant response rating, Giant foxtail",giant foxtail; [1],5
same,Giant foxtail plant response rating,giant foxtail; [2],9
same,Giant foxtail plant response rating,giant foxtail; [3],9
same,Giant foxtail plant response rating,giant foxtail; [4],10
same,Giant foxtail plant response rating,giant foxtail; [5],10
same,"Plant response rating, Giant foxtail",giant foxtail; [6],10
same,"Plant response rating, Giant foxtail",giant foxtail; [7],10
same,Giant foxtail plant response rating,giant foxtail; [8],9
same,"Plant response rating, Bedstraw",bedstraw,0
same,"Plant response rating, Rice (0 to 10 scale, 0 is no effect, 10 is complete control)",rice; [9],0
same,"Rice plant response rating (0 to 10 scale, 0 is no effect, 10 is complete control)",rice; [10],0
same,Rice plant response rating,rice; [11],0
same,Rice plant response rating,rice; [12],0
same,"Plant response rating, Cocklebur",cocklebur; [1],2
same,Cocklebur plant response rating,cocklebur; [2],3
same,Cocklebur plant response rating,cocklebur; [3],4
same,Cocklebur plant response rating,cocklebur; [4],0
same,Cocklebur plant response rating,cocklebur; [5],0
same,"Plant response rating, Cocklebur",cocklebur; [6],0
same,"Plant response rating, Cocklebur",cocklebur; [7],0
same,Cocklebur plant response rating,cocklebur; [8],5
same,"Plant response rating, Nutsedge",purple nutsedge; [1],0
same,Nutsedge plant response rating,purple nutsedge; [2],0
same,Nutsedge plant response rating,purple nutsedge; [4],0
same,Nutsedge plant response rating,purple nutsedge; [5],0
same,"Plant response rating, Nutsedge",purple nutsedge; [6],3
same,"Plant response rating, Nutsedge",purple nutsedge; [7],7
same,Nutsedge plant response rating,purple nutsedge; [8],0
same,"Plant response rating, Blackgrass",blackgrass; [1],6
same,Blackgrass plant response rating,blackgrass; [2],8
same,Blackgrass plant response rating,blackgrass; [3],8
same,Blackgrass plant response rating,blackgrass; [4],8
same,Blackgrass plant response rating,blackgrass; [5],8
same,"Plant response rating, Blackgrass",blackgrass; [6],8
same,"Plant response rating, Blackgrass",blackgrass; [7],10
same,Blackgrass plant response rating,blackgrass; [8],8
same,"Plant response rating, B. signalgrass",surinam grass; [1],0
same,"Plant response rating, B. signalgrass",surinam grass; [2],4
same,B. signalgrass plant response rating,surinam grass; [3],6
same,B. signalgrass plant response rating,surinam grass; [4],3
same,B. signalgrass plant response rating,surinam grass; [5],5
same,"Plant response rating, B. signalgrass",surinam grass; [6],8
same,"Plant response rating, B. signalgrass",surinam grass; [7],8
same,B. signalgrass plant response rating,surinam grass; [8],7
same,"Plant response rating, Wild oats",wild oat; [1],0
same,Wild oats plant response rating,wild oat; [2],4
same,Wild oats plant response rating,wild oat; [4],4
same,Wild oats plant response rating,wild oat; [5],8
same,"Plant response rating, Wild oats",wild oat; [6],8
same,"Plant response rating, Wild oats",wild oat; [7],10
same,Wild oats plant response rating,wild oat; [8],6
same,"Plant response rating, Velvetleaf",velvetleaf; [1],5
same,Velvetleaf plant response rating,velvetleaf; [2],6
same,Velvetleaf plant response rating,velvetleaf; [4],6
same,Velvetleaf plant response rating,velvetleaf; [5],6
same,"Plant response rating, Velvetleaf",velvetleaf; [6],8
same,"Plant response rating, Velvetleaf",velvetleaf; [7],10
same,Velvetleaf plant response rating,velvetleaf; [8],8
same,"Plant response rating, Barnyardgrass (0 to 10 scale, 0 is no effect, 10 is complete control)",bamyardgrass; [9],0
same,"Barnyardgrass plant response rating (0 to 10 scale, 0 is no effect, 10 is complete control)",bamyardgrass; [10],0
same,Barnyardgrass plant response rating,bamyardgrass; [11],0
same,Barnyardgrass plant response rating,bamyardgrass; [12],0
same,"Plant response rating, S. Flatsedge (0 to 10 scale, 0 is no effect, 10 is complete control)",smallflower flatsedge; [9],0
same,"S. Flatsedge plant response rating (0 to 10 scale, 0 is no effect, 10 is complete control)",smallflower flatsedge; [10],0
same,S. Flatsedge plant response rating,smallflower flatsedge; [11],0
same,S. Flatsedge plant response rating,smallflower flatsedge; [12],0
